Columns and labels:
[1] = system: Lymph node-derived T-cell; assay: Lymph node-derived T-cell proliferation in mice immunized with (NANP)3-12-26; type: in vivo; conditions: eight days after immunization with (NANP)3-12-26
Protocol: For T-cell proliferation studies 100 μg of (NANP)3-12-26 emulsified in CFA was injected in the base of the tail and also food pad of mice on day 0. […] Cells were seeded at 8×10^5 /well flat bottom microtiter plates 1/2 volume in 0.1 ml RPMI containing 10% FCS, […], penicillin, streptomycin and antigen. On day 2, 1 μCi of ^3 H thymidine (ICN) was added to triplicate or duplicate cultures. 16 hr later cells were harvested and incorporated ^3 H was assayed by scintillation counter.
All T-cell activity is directed to the Class II binding sequence.

[2] = system: lymph node-derived T-cells from P12-26 immune mice; assay: Standard lymph node proliferation assay (thymidine incorporation); type: cell-based; conditions: cultured with 10 μM P12-26
Description: (§1) The proliferation of these same cultures was not inhibited (75,000 cpm) by a monoclonal antibody, 34-1-4S, which is specific for I-E^d and which inhibits the stimulation of a hemocyanin specific, I-E^d resticted T-cell hybridoma.

I-E^d = assay: Restriction of peptide-specific T-cell hybrids assayed on L cells expressing I-A^d or I-E^d; type: cell-based, Balb/c mouse; conditions: P12-26: of more than 300 hybrids; myoglobin (P135-147): of 80 hybrids
Description: That is, they could be stimulated by antigen in the presence of L cells expressing I-A^d, but could not be shown to be stimulated by antigen in the presence of L cells expressing I-E^d.
as §1

[3] = system: monoclonal antibody B3.11; assay: Inhibition of monoclonal antibody B3.11 binding to BSA conjugated to P12-26; conditions: BSA conjugated to P12-26 adsorbed to microwells; inhibitors listed in order of decreasing inhibition
Description: Antibody recognition of (NANP)3-12-26 by monoclonal antibodies was studied. The antigen, bovine serum albumin (BSA) conjugated to P12-26 was adsorbed to microwells and horseradish peroxidase (HRP) labeled antibody specific for P12-26 added. In the absence of (NANP)3-12-26 or in the presence of P12-26LF, there is no inhibition of monoclonal antibody B3.11 binding.

P12-26: derived from the cI protein of bacteriophage lambda (residues 12-26)
T-cell proliferation by thymidine incorporation on culture with peptide [1]: T-cell proliferation as assayed by thymidine incorporation was seen | Proliferation (thymidine incorporation) [2]: 68,000 cpm | Number of peptide-specific hybrids restricted by I-E^d (I-E^d): none | Inhibition of monoclonal antibody B3.11 binding [3]: Inhibition is observed

Reference: patent US5019384A, “Immunonodulating compositions and their use” (Massachusetts Institute of Technology, priority 1989, dated 1991)
